In patent US8735071B2, “Compositions for promoting epigenetic DNA demethylation and methods of use therefore” (The Johns Hopkins University, priority 2008, dated 2014):

Columns and labels:
Arc = settings: CPP 10 mg/kg i.p. at 1 hr before ECT; 1 hr after ECT; FIG. 2E
Description: (§1) Electroconvulsive treatment (ECT) was administered with pulses consisted of 1.0 s, 100 Hz, 18 mA stimulus of 0.3 ms delivered using the Ugo Basile ECT unit (Model 57800) as previously described (A. J. Cole, Neurochem 55, 1920 (1990)). […] S ham animals were similarly handled in parallel without the current delivery. In some experiments, ±3-(2-carboxypiperazin-4-yl)-propyl-1-phosphonic acid (CPP, 10 mg/kg body weight, i.p.), was injected at 1 hr before ECT. Potential damaging responses after ECT was examined by Western blot and immunostaining of the activated form of caspase (Caspase 3-a; Rabbit; 1:500; Cell Signaling) and phospho-ATM (Ataxia telangiectasia mutated kinase; mouse; Millipore) (3).
(§2) Dentate gyrus tissue was rapidly micro-dissected from adult WT mice, or with ECT, spatial exploration or running. […] For gene expression analysis, total RNA fraction was immediately isolated after dissection (Qiagen), treated with DNAase and reverse-transcribed into the first-strand cDNA (Invitrogen). Specific primers (listed in Table 1) were used in SYBR-green based quantitative real-time PCR to measure the expression level of target genes with the ΔΔT method (ABI). Most primers were designed to span introns to further prevent genomic DNA amplification during the PCR reaction.

Gadd45b = settings: CPP 10 mg/kg i.p. at 1 hr before ECT; 1 hr after ECT; FIG. 2E
Description: as §1, §2

Gadd45b expression = Gadd45b expression in cultured primary hippocampal neurons by Q-PCR; type: cell-based, mice; settings: for Gadd45b expression: agent alone, K^+ 50 mM, APV 200 μM, bicuculline 50 μM, FIG. 5A, 5C; for K^+-induced Gadd45b expression: pretreated 0.5 hr, then K^+ (50 mM) for 1 hr, BAPTA 50 μM, Nimodipin 10 μM, KN93 or KN92 10 μM, FIG. 5B
Description: as §2
Primary hippocampal neurons were prepared from hippocampi of P0 mice and plated on poly-lysine coated coverslips in Neurobasal-A medium supplemented with B27 (Invitrogen) as previously described (H. Song, C. F. Stevens, F. H. Gage, Nature 417, 39 (2002)). AraC (5 μM) was added to eliminate proliferating cells. One-week old culture was used for all experiments. For pharmacological experiments, cultures were pretreated with the following inhibitors 30 minutes before stimulation with K^+ (50 mM) or glutamate (20 μM) for 1 hr: BAPTA (50 μM), Nimodipin (10 μM), APV (200 μM), bicuculline (50 μM), KN92 or KN93 (10

adult neural progenitors = assay: Proliferation of adult hippocampal neural progenitors in culture; type: cell-based, rat; settings: FGF-1 0, 2, 5, 10 and 20 ng/ml versus FGF-2 20 ng/ml; cell number at 4 days in vitro; FIG. 23
Description: Established neural progenitors from adult rat hippocampus were cultured as monolayer as previously described (H. Song, C. F. Stevens, F. H. Gage, Nature 417, 39 (2002).). They were maintained on laminin and polyornithine-coated dishes in DMEM/F12 medium containing N2 supplement, L-glutamine (2 mM) and FGF-2 (20 ng/ml). Cultures were passaged for expansion when reaching 70% confluence. For FGF-1 experiments, early-passage, monolayer adherent cultures were plated at the clonal density in the presence of various concentration of FGF-1 or FGF-2 (PeproTech). At 4 days in vitro, cultures were fixed and cell numbers from each condition were determined by counting from randomly selected fields of 4 different biological replicates.

| Molecule | Gadd45b expression (Gadd45b expression; glutamate 20 μM) | K^+-induced Gadd45b expression (Gadd45b expression) | further results |
| --- | --- | --- | --- |
| O=C(O)C1CN(CCCP(=O)(O)O)CCN1 (racemic) [CPP, ±3-(2-carboxypiperazin-4-yl)-propyl-1-phosphonic acid] | – | – | ECT-induced Arc expression (Arc): abolished; ECT-induced Gadd45b expression (Gadd45b): abolished |
| N[C@@H](CCCP(=O)(O)O)C(=O)O [APV] | significantly decreased | – | glutamate-induced Gadd45b expression (Gadd45b expression; APV 200 μM pre-treatment, glutamate 20 μM, FIG. 5C): blocked |
| O=C(O)CN(CC(=O)O)c1ccccc1OCCOc1ccccc1N(CC(=O)O)CC(=O)O [BAPTA] | – | abolished | – |
| COc1ccc(S(=O)(=O)Nc2ccccc2CN(C)C/C=C/c2ccc(Cl)cc2)cc1 [KN92] | – | not | – |
| COc1ccc(S(=O)(=O)N(CCO)c2ccccc2CN(C)C/C=C/c2ccc(Cl)cc2)cc1 [KN93] | – | abolished | – |
| [Cl-].[K+] [K^+] | significant increase | – | – |
| COCCOC(=O)C1=C(C)NC(C)=C(C(=O)OC(C)C)C1c1cccc([N+](=O)[O-])c1 (centres unmarked) [Nimodipin] | – | abolished | – |
| N[C@@H](CCC(=O)O)C(=O)O [glutamate] | induced | – | – |
| FGF-1: fibroblast growth factor-1 (PeproTech) | – | – | mitogenic activity on neural progenitor proliferation in vitro (adult neural progenitors): robust mitogenic activity |
